We go through 13 compounds from US20100215618A1, “NOVEL COMPOUNDS - 644” (Arrow Therapeutics Limited, priority 2009, published 2010).

The test system of data set [1] is HCV replicon cells Huh 9B. The class given is cell-based. Conditions: Huh 9B replicon cells, 72 h, methylene blue, total cell area reduced by 50%.
A further data set is described as follows: in vitro. It is filed as in vitro ADME, Canine. Conditions: dog, MDCK. The procedure:
Cells used: MDCK (Madin-Darby Canine Kidney) cells, ATCC collection # CCL-34, are used to model the intestinal barrier. Cell culture conditions: cells were cultured at 37° C. in a 5% CO2 environment and split twice a week on seeding at 4×10^5 cells/flask (75 cm^2) on day 1 and 2×10^5 cells/flask on day 4. The culture medium consisted of MEM+Earle's-L Glutamine (Gibco #21090-022) supplemented with 10% Australian Fetal Calf Serum (Sigma #F6178), 2 mM L-Glutamine (Gibco #25030-024) and 1× Non Essential Amino Acids (Gibco #11140-035)
On day 1, a 24-well plate (Sarstedt, #83.1836.300) was filled with individual 3 lam pore membrane inserts (Millipore, #PITP 012 50). Each plate allows the testing of a cocktail of 3 control compounds and 11 test compounds in duplicate. The wells (outside the inserts) were filled with 500 μl of culture medium.
A flask of cells was trypsinised and a cell count carried out. Cells were diluted to 1.2×10^5 cells/ml (1×10^5 cells/cm^2) and 500 μl dispensed in each insert on the 24-well plate. The plate was incubated at 37° C. in a 5% CO2 environment for 48 hours.
On day 3, the culture medium was removed from the wells, then the inserts and is replaced with fresh culture medium in the wells, then the inserts (500111 per well and insert) The plate was incubated at 37° C. in a 5% CO2 environment for 24 hours.
On day 4, the controls cocktail and test compounds solutions were made up in HBSS buffer (Hank's Balanced Salt Solution, Gibco #14025-050) at 1011M. The final controls and test compounds concentration in the assay was 10 μM, and DMSO concentration maintained at 0.1% (0.3% for the controls cocktail). The controls cocktail was made up of Atenolol (Sigma # A-7655), Dexamethasone (Sigma #D-1756) and Propranolol (Sigma # P-0884).
A 24-well plate was filled with 500 μl of HBSS buffer per well (assay plate) The culture medium was removed from the wells and inserts. The inserts were washed three times with approximately 500 μl of HBSS buffer. The inserts were transferred to the assay plate. Controls cocktail and test compounds solutions were dispensed inside the inserts (500 μl per insert), in duplicates. The assay plate was incubated at 37° C. in a 5% CO2 environment for 2 hours.
After 2 hours, the inserts were removed from the assay plate and transferred into a new 24-well plate (wash plate) The assay plate containing the receiver solutions was left aside for later sampling. To measure the mass balance, 150 μl were sampled from each insert (donor solutions) and dispensed into 150 μl of HPLC-grade Acetonitrile (Fisher Scientific) containing an internal standard and 0.05% formic acid.
The donor solutions were aspirated and discarded from each insert, and the inserts washed once with approximately 500 μl of HBSS buffer. A 24-well plate was filled with 500 μl of HBSS buffer per well (monolayer integrity plate) A Lucifer Yellow (Sigma #L0144) solution was made up at 1001.1M in HBSS buffer. The empty inserts were transferred into the monolayer integrity plate and filled with 500 μl of the Lucifer Yellow solution to determine the cell monolayers integrity and leftover of the solution was kept in a fridge. The plate was incubated at 37° C. in a 5% CO2 environment for 2 hours.
In the meantime, 150 μl were sampled from the assay plate (receiver solutions) and dispensed into 150 μl of HPLC-grade Acetonitrile containing an internal standard and 0.05% formic acid. A calibration curve was made for each mix of compounds (as appropriate depending on compounds molecular weights) A 10 μM mix of compounds in HBSS buffer was diluted 1:1 in HPLC-grade Acetonitrile containing an internal standard and 0.05% formic acid. A 1:1 mix of HBSS buffer and HPLC-grade Acetonitrile containing an internal standard and 0.05% formic acid was made up and used to make up the calibration curve (2 fold dilutions), with concentrations ranging from 10 μM to 0.078 μM. […]

With `CC(C)(C)OC(=O)N[C@@H](C(=O)N1CCC[C@H]1c1ncc(-c2ccc(-c3ccc(C(=O)Nc4ccc(CN5CCS(=O)(=O)CC5)cc4)cc3)cc2)[nH]1)c1ccccc1` [Example 2, Tert-butyl N-[(1R)-2-[(2S)-2-[5-[4-[4-[[4-[(1,1-dioxo-1,4-thiazinan-4-yl)methyl]phenyl]carbamoyl]phenyl]phenyl]-1H-imidazol-2-yl]pyrrolidin-1-yl]-2-oxo-1-phenyl-ethyl]carbamate], in data set [1], the “HCV TD50 Replicon” value is >25 µM. In “in vitro”, this compound showed an apparent permeability coefficient (Papp) at 2 h, 10 µM of 0.2 ×10⁻⁶ cm/s.

On to `COC(=O)N[C@H](C(=O)N1CCC[C@H]1c1ncc(-c2ccc(-c3ccc(C(=O)Nc4ccc(CN5CCS(=O)(=O)CC5)cc4)cc3)cc2)[nH]1)C(C)C` [Example 3, Methyl N-[(1S)-1-[(2S)-2-[5-[4-[4-[[4-[(1,1-dioxo-1,4-thiazinan-4-yl)methyl]phenyl]carbamoyl]phenyl]phenyl]-1H-imidazol-2-yl]pyrrolidine-1-carbonyl]-2-methyl-propyl]carbamate], for which, in data set [1], the “HCV TD50 Replicon” value was >25 µM. The Papp at 2 h, 10 µM in the data set “in vitro” worked out at 4.1 ×10⁻⁶ cm/s.

With `COC(=O)N[C@H](C(=O)N1CCC[C@H]1c1ncc(-c2ccc(-c3ccc(C(=O)Nc4ccc(CN5CCS(=O)(=O)CC5)cc4)cc3)cc2)[nH]1)C(C)(C)C` [Example 5, Methyl N-[(1S)-1-[(2S)-2-[5-[4-[4-[[4-[(1,1-dioxo-1,4-thiazinan-4-yl)methyl]phenyl]carbamoyl]phenyl]phenyl]-1H-imidazol-2-yl]pyrrolidine-1-carbonyl]-2,2-dimethyl-propyl]carbamate], the “HCV TD50 Replicon” value in data set [1] is 3.9 µM. In addition, the apparent permeability (Papp) at 2 h, 10 µM in the data set “in vitro” was 2 ×10⁻⁶ cm/s.

Consider `COC(=O)N[C@H](C(=O)N1CCC[C@H]1c1ncc(-c2ccc(-c3ccc(C(=O)Nc4ccc(CN5CCS(=O)(=O)CC5)cc4)cc3)cc2)[nH]1)c1ccccc1` [Example 6, Methyl N-[(1S)-2-[(2S)-2-[5-[4-[4-[[4-[(1,1-dioxo-1,4-thiazinan-4-yl)methyl]phenyl]carbamoyl]phenyl]phenyl]-1H-imidazol-2-yl]pyrrolidin-1-yl]-2-oxo-1-phenyl-ethyl]carbamate], for which the “HCV TD50 Replicon” value in data set [1] is >25 µM. Further, in the data set “in vitro”, the apparent permeability coefficient (Papp) at 2 h, 10 µM is 0.1 ×10⁻⁶ cm/s.

`COC(=O)N[C@@H](C(=O)N1CCC[C@H]1c1ncc(-c2ccc(-c3ccc(C(=O)Nc4ccc(CN5CCS(=O)(=O)CC5)cc4)cc3)cc2)[nH]1)c1ccccc1` [Example 7, Methyl N-[(1R)-2-[(2S)-2-[5-[4-[4-[[4-[(1,1-dioxo-1,4-thiazinan-4-yl)methyl]phenyl]carbamoyl]phenyl]phenyl]-1H-imidazol-2-yl]pyrrolidin-1-yl]-2-oxo-1-phenyl-ethyl]carbamate]: the “HCV TD50 Replicon” value in data set [1] was >25 µM. Moreover, the apparent permeability (Papp) at 2 h, 10 µM in the data set “in vitro” came to 0.4 ×10⁻⁶ cm/s.

Take `CCN(CC)[C@@H](C(=O)N1CCC[C@H]1c1ncc(-c2ccc(-c3ccc(C(=O)Nc4ccc(CN5CCS(=O)(=O)CC5)cc4)cc3)cc2)[nH]1)c1ccccc1` [Example 8, 4-[4-[2-[(2S)-1-[(2R)-2-(diethylamino)-2-phenyl-acetyl]pyrrolidin-2-yl]-1H-imidazol-5-yl]phenyl]-N-[4-[(1,1-dioxo-1,4-thiazinan-4-yl)methyl]phenyl]benzamide]: the “HCV TD50 Replicon” value in data set [1] is >25 µM. The Papp at 2 h, 10 µM in the data set “in vitro” came to 1.2 ×10⁻⁶ cm/s.

Consider `CN(C)[C@@H](C(=O)N1CCC[C@H]1c1ncc(-c2ccc(-c3ccc(C(=O)Nc4ccc(CN5CCS(=O)(=O)CC5)cc4)cc3)cc2)[nH]1)c1ccccc1` [Example 9, 4-[4-[2-[(2S)-1-[(2R)-2-(dimethylamino)-2-phenyl-acetyl]pyrrolidin-2-yl]-1H-imidazol-5-yl]phenyl]-N-[4-[(1,1-dioxo-1,4-thiazinan-4-yl)methyl]phenyl]benzamide], for which the “HCV TD50 Replicon” value in data set [1] was >25 µM. In addition, the apparent permeability (Papp) at 2 h, 10 µM in the data set “in vitro” turned out to be 0.9 ×10⁻⁶ cm/s.

For the compound `COC(=O)N[C@@H](CC(C)C)C(=O)N1CCC[C@H]1c1ncc(-c2ccc(-c3ccc(C(=O)Nc4ccc(CN5CCS(=O)(=O)CC5)cc4)cc3)cc2)[nH]1` [Example 14, Methyl N-[(1S)-1-[(2S)-2-[5-[4-[4-[[4-[(1,1-dioxo-1,4-thiazinan-4-yl)methyl]phenyl]carbamoyl]phenyl]phenyl]-1H-imidazol-2-yl]pyrrolidine-1-carbonyl]-3-methyl-butyl]carbamate], in data set [1], the “HCV TD50 Replicon” value is >25 µM. Also, the Papp at 2 h, 10 µM in the data set “in vitro” stood at 1.2 ×10⁻⁶ cm/s.

Consider `CC[C@H](C)[C@H](NC(=O)OC)C(=O)N1CCC[C@H]1c1ncc(-c2ccc(-c3ccc(C(=O)Nc4ccc(CN5CCS(=O)(=O)CC5)cc4)cc3)cc2)[nH]1` [Example 16, Methyl N-[(1S,2S)-1-[(2S)-2-[5-[4-[4-[[4-[(1,1-dioxo-1,4-thiazinan-4-yl)methyl]phenyl]carbamoyl]phenyl]phenyl]-1H-imidazol-2-yl]pyrrolidine-1-carbonyl]-2-methyl-butyl]carbamate], for which the “HCV TD50 Replicon” value in data set [1] was >25 µM. Also, the Papp at 2 h, 10 µM in the data set “in vitro” is 1 ×10⁻⁶ cm/s.

`COC(=O)N[C@H](C(=O)N1CCC[C@@H]1c1ncc(-c2ccc(-c3ccc(C(=O)Nc4ccc(CN5CCS(=O)(=O)CC5)cc4)cc3)cc2)[nH]1)C(C)C` [Example 20, Methyl N-[(1S)-1-[(2R)-2-[5-[4-[4-[[4-[(1,1-dioxo-1,4-thiazinan-4-yl)methyl]phenyl]carbamoyl]phenyl]phenyl]-1H-imidazol-2-yl]pyrrolidine-1-carbonyl]-2-methyl-propyl]carbamate]: the apparent permeability (Papp) at 2 h, 10 µM in “in vitro” is 0.4 ×10⁻⁶ cm/s.

On to `CCCS(=O)(=O)N1CCN(Cc2ccc(NC(=O)c3ccc(-c4ccc(-c5cnc([C@@H]6CCCN6C(=O)[C@@H](NC(=O)OC)C(C)C)[nH]5)cc4)cc3)cc2)CC1` [Example 40, Methyl N-[(1S)-2-methyl-1-[(2S)-2-[5-[4-[4-[[4-[(4-propylsulfonylpiperazin-1-yl)methyl]phenyl]carbamoyl]phenyl]phenyl]-1H-imidazol-2-yl]pyrrolidine-1-carbonyl]propyl]carbamate], for which the Papp at 2 h, 10 µM in the data set “in vitro” is 0.7 ×10⁻⁶ cm/s.

`COC(=O)N[C@H](C(=O)N1CCOC[C@H]1c1ncc(-c2ccc(-c3ccc(C(=O)Nc4ccc(CN5CCS(=O)(=O)CC5)cc4)cc3)cc2)[nH]1)c1ccccc1` [Example 47, Methyl N-[(1S)-2-[(3R)-3-[5-[4-[4-[[4-[(1,1-dioxo-1,4-thiazinan-4-yl)methyl]phenyl]carbamoyl]phenyl]phenyl]-1H-imidazol-2-yl]morpholin-4-yl]-2-oxo-1-phenyl-ethyl]carbamate]: in data set [1], the “HCV TD50 Replicon” value is >25 µM. The compound further displayed a Papp at 2 h, 10 µM in “in vitro” of 0.1 ×10⁻⁶ cm/s.

Take `COC(=O)N[C@H](C(=O)N1CCC[C@H]1c1ncc(-c2ccc(-c3ccc(C(=O)Nc4ccc(CN5CCS(=O)(=O)CC5)cc4)cc3)c(C)c2)[nH]1)C(C)C` [Example 54, Methyl N-[(1S)-1-[(2S)-2-[5-[4-[4-[[4-[(1,1-dioxo-1,4-thiazinan-4-yl)methyl]phenyl]carbamoyl]phenyl]-3-methyl-phenyl]-1H-imidazol-2-yl]pyrrolidine-1-carbonyl]-2-methyl-propyl]carbamate]: the “HCV TD50 Replicon” value in data set [1] is >25 µM. Moreover, in the data set “in vitro”, the apparent permeability (Papp) at 2 h, 10 µM turned out to be 6 ×10⁻⁶ cm/s.

In general, Papp refers to the rate of passage across a membrane or cell layer, normalised by area and donor concentration. Low values mean poor permeation, high ones ready permeation.
